Source: patent publication US5821046A, “RNA oligonucleotides that bind HIV tat protein” (RiboTargets Holdings PLC, priority 1990, dated 1998)
“And” between values parts separate entries of the source, which are not always exact repeats. Equal values may be shown once. “Also recorded” adds a separate entry of the source. Read-outs that look alike come from different tables or passages of the source.

How the values were obtained:
HIV-1 tat protein [1] = test: direct filter binding assay of tat to TAR RNA (saturation binding, Scatchard analysis); settings: for affinity of tat binding compared with wild type: gel retardation and filter binding assays (data not shown); for Kd: direct filter binding, HIV-1 TAR from saturation binding/Scatchard plot, mutants estimated from half-maximal binding, read-out: Kd (dissociation constant of tat binding)
Procedure: The results shown graphically in FIG. 4 are from experiments in which binding reactions (500 ul) contained 40 nMolar^32 P uniformly radiolabelled TAR RNA at a specific activity of 100,000 Ci/mole; 0.5 ug calf thymus DNA; 0.2 ug yeast TRNA; 40 units RNAsin (Promega); 50mm Tris-HCl pH 7.9 and 20 mM KCl. Reaction mixtures were set up on ice and increasing amounts of HIV-1 tat protein were added and the reaction mixtures were filtered through prewashed nitrocellulose filters (Millipore 0.45 uM pore size). The filters were dried and counted by liquid scintillation counting. The fraction of radiolabeled RNA bound was plotted against HIV-1 tat concentration.
Binding was measured by a filter-binding assay as described below under "Method", using monomeric tat protein prepared by CNBr cleavage of a human growth hormone-tat fusion protein expressed in E. coli. Reactions for saturation binding contained labeled TAR RNA [SEQ ID NO: 1] or antisense TAR RNA [SEQ ID NO: 6] at 10 nm and between 0 to 300 nM purified tat protein. Antisense TAR RNA was used as a control, since antisense TAR is unable to form stable complexes with tat in gel-retardation assays (Dingwall et al., 1989).
The stoichiometry of the tat/TAR interaction was determined by varying the TAR RNA concentrations over a wide range, while keeping the tat protein concentration constant near the Kd. For this Scatchard analysis, the tat protein concentration was held constant at 40 nM and the RNA concentration was varied between 7nM and 320 nM. The total amount of labeled RNA was kept constant in the binding reactions, but the specific activity of the RNA was varied. […]
Tat protein was prepared either from beta-galactosidase-tat fusion proteins (6) or from human growth-hormone-tat fusion proteins (85) using an improved method. In brief, inclusion body pellets containing the fusion protein were solubilized in 7M GdHCl, 50 mM Tris-HCl pH8.0, 2 mM EDTA, 2mM DTT and the fusion protein was purified to near homogeneity by ion-exchange chromatography on Q-Sepharose and S-Sepharose (Pharmacia) in buffers containing […], 50 mM Tris-HCl pH8.0, 2mM EDTA, 2mM DTT. The cysteine residues were protected by disulphide-exchange with 20 mM 2-hydroxyethyldisulphide (86), and the protein was cleaved by cyanogen bromide (6). The basic tat protein was then separated from the acidic human growth hormone peptides by ion-exchange chromatography on Q-Sepharose and S-Sepharose in 6M Urea. The protecting groups were then removed from the protein by addition of 10 mM DTT and the protein refolded by stepwise dialysis against 6 m Urea, 5M Urea,3M Urea, 1M Urea and 0M Urea in a buffer containing 50 mM Tris-HCl pH8.0, 100 uM DTT, 10 uM ZnCl2 Tat protein refolded in this manner elutes as a monomer from Superose 12 columns (Pharmacia) and migrates as a single band on polyacrylamide gels. Protein prepared by both methods behaved comparably in binding assays.
A wide variety of parameters affecting the binding of tat protein to TAR RNA were studied and binding conditions were optimized. Binding of tat to TAR has a distinct pH optimum at pH 8.0, but good binding is observed between pH 7.5 and pH 8.5. Tat/TAR complexes are very sensitive to ionic strength. […] Addition of Zn^+2, Cd^+2, Ca^+2, Mg,^+2, Fe^+2 or Fe^+3 ions to the reaction mixtures […]. However, the binding reaction is sensitive to EDTA at greater than 0.1 mM EDTA. Complex formation is also somewhat temperature sensitive. Optimal binding is observed at 0°C. Between 15° C. and 30° C. there is a 30% reduction in complex formation. […]

HIV-1 tat protein [2] = format: binding; settings: 32P-labeled RNA transcript, 0 to 600 ng tat
Procedure: i) Gel retardation assays (FIG. 6) Method RNA transcripts were prepared by transcription with either T3 or T7 RNA polymerases of TAR regions residues +1 to +57, cloned between the HindIII and EcoRI sites of the Bluescribe M13+expression vector (Stratagene). RNA transcripts corresponding to HIV-1 TAR [SEQ ID NO: 1], SSA [SEQ ID NO: 3], SAA and SAS [SEQ ID NO: 5] were synthesized from clones linearized with EcoRI and transcribed with T3 RNA polymerase. RNA transcripts corresponding to the antisense HIV-1 TAR […], AAS , ASS [SEQ ID NO: 4], and ASA (not shown) sequences were prepared from the same plasmids linearized with HindIII and transcribed using T7 RNA polymerase. All other RNA molecules were synthesized using T3 RNA polymerase following EcoRI cleavage of the plasmid vector. The RNA products each carry 13 nucleotides of vector sequence at their 5' end and four nucleotides at their 3' ends. […] Transcription mixtures contained 1 ug linearized plasmid, 40 mM Tris-HCl pH 8.0, 10 mM MgCl 2, 2 mM Spermidine-HCl, 50 mM NaCl, 100 uM each ribonucleotide triphosphate, 40 uCi (alpha-^32 P) UTP (410 Ci/m mol) and 10 units of RNA polymerase in a final volume of 30 ul and were incubated at 37° C. for 30 minutes. After phenol extraction and precipitation from ethanol the RNA was purified from a 9% polyacrylamide denaturing gel. The specific activity of the RNA product was determined and appropriate amounts were used in binding assays. Binding reaction mixtures (1 5ul) contained 1 ng of uniformly labeled RNA probe, 0.5 ug calf thymus DNA, 0.2 ug yeast TRNA, 40 units RNAsin (Promega), 50 mM Tris-HCl and 20 mM KCl and 0 to 600 ng tat protein, prepared from E. coli beta-galactosidase-tat fusion proteins, as described previously (6). After incubation at either 30° C. or 4° C. for 10-20 minutes, the reaction mixtures were applied to a 6% non-denaturing polyacrylamide gel (Acrylamide: Bis, 40:0.5) in 3.3 mM sodium acetate, 6.7 mM Tris (adjusted to pH 7.9 with HCl). The gel buffer was recirculated during electrophoresis at 35 mA for approximately 2 hours at room temperature. Gels were dried and exposed to X-ray film at -80° C. using intensifying screens.

| Substance | affinity of tat binding compared with wild type (HIV-1 tat protein [1]) | complex formation with tat in gel retardation assay (HIV-1 tat protein [2]) | Kd (HIV-1 tat protein [1]) [µM] | further results |
| --- | --- | --- | --- | --- |
| ASS: anti-sense lower stem, sense upper stem and loop sequences (GGGUUCCCUAGUUAGACCAGAUUUGAGCCUGGGAGCUCUCUGGCUAACCAGAGAGACCC; chemistry not given here) | bind tat with wild-type affinities | discrete complex formation | – | – |
| SSA: sense stem, antisense loop sequence (GGGUCUCUCUGGUUAGACCAGAUUUGAGCUCCCAGGCUCUCUGGCUAACUAGGGAACCC; chemistry not given here) | bind tat with wild-type affinities | discrete complex formation | – | – |
| G to U (loop): TAR RNA in which residues 32-34 are changed to uridine (U) (GGGUCUCUCUGGUUAGACCAGAUUUGAGCCUUUUAGCUCUCUGGCUAACUAGGGAACCC; RNA, backbone not given here) | – | discrete complex formation | 0.025 | – |
| SAS: anti-sense upper stem flanked by sense lower stem and loop sequences (GGGUCUCUCUGGUUAGCCAGAGAGCCUGGGAGCUCAAAUCUGGUCUAACUAGGGAACCC; chemistry not given here) | bind tat with significantly reduced affinities | No complexes were formed; also recorded: fail to form complexes | – | – |
| delta U (bulge): TAR RNA in which residues 23-25 are deleted (GGGUCUCUCUGGUUAGACCAGAGAGCCUGGGAGCUCUCUGGCUAACUAGGGAACCC; RNA, backbone not given here) | – | – | > 0.07 | complex formation with tat in gel retardation assay (HIV-1 tat protein [2]; listed as SEQ ID NO: 8): abolished tat binding; complex formation with tat in gel retardation assay (HIV-1 tat protein [2]; listed as delta U3 (bulge)): No complexes were formed |
| HIV-1 TAR (UUU): full length HIV-1 TAR RNA of 59 residues prepared by transcription, wild type, UUU bulge (GGGUCUCUCUGGUUAGACCAGAUUUGAGCCUGGGAGCUCUCUGGCUAACUAGGGAACCC; unmodified RNA) [reference compound] | – | discrete complex formation | 0.012 | stoichiometry v, moles of RNA bound per mole of protein (HIV-1 tat protein [1]; Scatchard analysis, 40 nM tat, RNA 7-320 nM): approximately one; Kd (HIV-1 tat protein [1]; listed as HIV-1 TAR RNA): 0.012 µM; Kd (HIV-1 tat protein [1]; listed as TAR RNA): 0.012 µM; Kd (HIV-1 tat protein [1]; listed as TAR): 0.0118 µM and 0.012 µM |
| G28 to C28: TAR point mutation expected to disrupt the top of the TAR stem/loop structure (GGGUCUCUCUGGUUAGACCAGAUUUGACCCUGGGAGCUCUCUGGCUAACUAGGGAACCC; chemistry not given here) | – | failed to bind to tat | > 0.1 | Kd (HIV-1 tat protein [1]; listed as SEQ ID NO: 10): 0.1 µM |
